Data reported in ChEMBL document CHEMBL1137999, “A novel series of p38 MAP kinase inhibitors for the potential treatment of rheumatoid arthritis” (Bioorg Med Chem Lett, 2004).
pIC50: −log10 of the molar value. Values after ≈ are worked out from the molar mass of the structure shown.

Experiments:
Homo sapiens = species: Homo sapiens; experiment: tissue or blood
[1] = target: Mitogen-activated protein kinase 14 (Homo sapiens, UniProt Q16539)
[2] = Protein binding was determined in human; type: ADME
[3] = Oral bioavailability at 3 mg/kg; type: ADME, organism-based; details: rat, in vivo, read-out: Bioavailabiility
[4] = Volume distribution after iv administration of 1 mg/kg; type: ADME, organism-based; set-up: dose 1 mg/kg, route intravenous; details: rat, in vivo, read-out: Distribution
[5] = Solubility was determined; type: physicochemical
cells = details: Homo sapiens
[6] = Area under plasma-time concentration curve when administered at 1 mg/kg dose; type: ADME, organism-based; set-up: dose 1 mg/kg; details: rat
Mus musculus [7] = species: Mus musculus; experiment: animal or person; type: functional
Mus musculus [8] = species: Mus musculus; experiment: animal or person; type: functional; remark: listed apart in the source
Mus musculus [9] = species: Mus musculus; experiment: animal or person; type: functional; remark: listed apart in the source
[10] = Log D value at pH 7.4; type: physicochemical; details: buffer

Mitogen-activated protein kinase 14, sequence (Q16539 whole entry): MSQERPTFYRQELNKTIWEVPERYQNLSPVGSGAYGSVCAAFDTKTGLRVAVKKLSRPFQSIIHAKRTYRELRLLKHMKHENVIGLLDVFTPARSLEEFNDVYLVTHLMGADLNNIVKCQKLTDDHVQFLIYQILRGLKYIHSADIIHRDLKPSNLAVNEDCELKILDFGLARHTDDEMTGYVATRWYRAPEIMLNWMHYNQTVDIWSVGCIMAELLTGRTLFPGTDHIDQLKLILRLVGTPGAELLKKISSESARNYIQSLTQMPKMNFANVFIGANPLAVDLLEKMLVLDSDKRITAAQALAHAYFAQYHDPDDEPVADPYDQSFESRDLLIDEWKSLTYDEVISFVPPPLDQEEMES

Row | Structure (SMILES) | pIC50 (Homo sapiens) | pIC50 [1] | pIC50 (cells) | AUC [6] | further results
1 | Cc1ccc(NC(=O)c2cccc(N3CCOCC3)c2)cc1NC(=O)c1ccc(OCc2ccccc2)cc1 | 4.40 | 7.52 |  |  | 
2 | Cc1ccc(NC(=O)c2ccnc(N3CCOCC3)c2)cc1NC(=O)c1ccc(OCc2ccccn2)cc1 | 5.55 | 8.00 |  |  | Binding [2]: 99.89%; bioavailability [3]: 46%; Vd [4]: 1.6 L/kg; solubility [5]: < 1 µM
3 | COc1ccc(C(=O)Nc2cc(NC(=O)c3cccc(N(C)C)c3)ccc2F)cc1OC |  | 5.72 | 4.66 |  | 
4 | Cc1ccc(NC(=O)c2cc(F)cc(N3CCOCC3)c2)cc1NC(=O)c1ccc(OCc2ccccn2)cc1 | 4.95 | 7.22 |  | 0.13 µM·h | inhibition in vivo at 30 mg/kg (Mus musculus [7]; dose 30 mg/kg): 43%
5 | COc1ccc(C(=O)Nc2cc(NC(=O)c3cccc(N(C)C)c3)ccc2Br)cc1OC |  | 6.47 | 5.02 |  | 
6 | COc1ccc(C(=O)Nc2cc(NC(=O)c3cccc(N(C)C)c3)ccc2C)cc1OC |  | 6.74 | 5.19 |  | 
7 | COc1ccc(C(=O)Nc2cc(NC(=O)c3cccc(N(C)C)c3)ccc2C)c(OC)c1 |  | 7.00 | < 4.30 |  | 
8 | CCOc1ccc(C(=O)Nc2cc(NC(=O)c3cccc(N(C)C)c3)ccc2C)cc1OCC |  | 7.30 | 5.35 |  | 
9 | C[S+]([O-])c1ccc(-c2nc(-c3ccc(F)cc3)c(-c3ccncc3)[nH]2)cc1 (centres undefined) [SB-203580] |  |  |  |  | inhibition in vivo at 3 mg/kg (Mus musculus [8]): 0%; inhibition in vivo at 30 mg/kg (Mus musculus [7]): 50%; inhibition in vivo at 10 mg/kg (Mus musculus [9]): 47%
10 | Cc1ccc(NC(=O)c2cc(F)cc(N3CCOCC3)c2)cc1NC(=O)c1ccc(OCc2cscn2)cc1 | 5.60 | 8.00 |  | 0.71 µM·h | inhibition in vivo at 30 mg/kg (Mus musculus [7]): 81%; inhibition in vivo at 10 mg/kg (Mus musculus [9]): 37%
11 | CCOCCOc1ccc(C(=O)Nc2cc(NC(=O)c3cccc(N(C)C)c3)ccc2C)cc1 |  | 6.51 | 5.02 |  | 
12 | COc1ccc(C(=O)Nc2cc(NC(=O)c3cccc(N(C)C)c3)ccc2Cl)cc1OC |  | 6.66 | 5.19 |  | 
13 | COc1ccc(C(=O)Nc2ccc(C)c(NC(=O)c3cccc(N(C)C)c3)c2)cc1OC |  | < 4.70 |  |  | 
14 | Cc1ccc(NC(=O)c2cccc(N(C)C)c2)cc1NC(=O)c1ccc(O)cc1 |  | 6.74 | < 4.30 |  | Binding [2]: 99.7%; logD [10]: 2.7; solubility [5]: 10 µM (≈ 3.89 µg/mL)
15 | Cc1ccc(NC(=O)c2cccc(N3CCOCC3)c2)cc1NC(=O)c1ccc(OCc2ccncc2)cc1 | 5.48 | 7.70 |  | 0.13 µM·h | inhibition in vivo at 3 mg/kg (Mus musculus [8]; dose 3 mg/kg): 14%; inhibition in vivo at 30 mg/kg (Mus musculus [7]; dose 30 mg/kg): 75%; inhibition in vivo at 10 mg/kg (Mus musculus [9]; dose 10 mg/kg): 43%
16 | Cc1nc(COc2ccc(C(=O)Nc3cc(NC(=O)c4cccc(N5CCOCC5)c4)ccc3C)cc2)cs1 | 4.84 | 7.70 |  | 2.03 µM·h | inhibition in vivo at 3 mg/kg (Mus musculus [8]; dose 3 mg/kg): 33%; inhibition in vivo at 30 mg/kg (Mus musculus [7]; dose 30 mg/kg): 71%; inhibition in vivo at 10 mg/kg (Mus musculus [9]; dose 10 mg/kg): 44%
17 | Cc1ccc(NC(=O)c2cccc(N3CCOCC3)c2)cc1NC(=O)c1ccc(OCc2cscn2)cc1 |  |  |  | < 0.12 µM·h | inhibition in vivo at 3 mg/kg (Mus musculus [8]): 28%; inhibition in vivo at 30 mg/kg (Mus musculus [7]): 56%; inhibition in vivo at 10 mg/kg (Mus musculus [9]): 44%
18 | Cc1ccc(NC(=O)c2cccc(N3CCOCC3)c2)cc1NC(=O)c1ccc(OCc2cccnc2)cc1 | 4.83 | 7.05 |  |  | 
19 | Cc1ccc(NC(=O)c2cccc(N3CCOCC3)c2)cc1NC(=O)c1ccc(OCc2ccccn2)cc1 |  |  |  | 1.38 µM·h | inhibition in vivo at 30 mg/kg (Mus musculus [7]; dose 30 mg/kg): 59%
20 | Cc1ccc(NC(=O)c2cc(F)cc(N3CCCC3)c2)cc1NC(=O)c1ccc(OCc2ccccn2)cc1 |  |  |  | 0.07 µM·h | inhibition in vivo at 30 mg/kg (Mus musculus [7]): 7%; inhibition in vivo at 10 mg/kg (Mus musculus [9]): 3%
21 | COc1ccc(C(=O)Nc2cc(NC(=O)c3cccc(N(C)C)c3)ccc2C)cc1 |  | 6.74 | < 4.30 |  | 
22 | COc1ccc(C(=O)Nc2cccc(NC(=O)c3cccc(N(C)C)c3)c2)cc1OC |  | < 4.70 |  |  | 
23 | Cc1nc(COc2ccc(C(=O)Nc3cc(NC(=O)c4cc(F)cc(N5CCOCC5)c4)ccc3C)cc2)cs1 | 5.55 | 7.05 |  | 0.73 µM·h | inhibition in vivo at 3 mg/kg (Mus musculus [8]; dose 3 mg/kg): 0%; inhibition in vivo at 30 mg/kg (Mus musculus [7]; dose 30 mg/kg): 35%; inhibition in vivo at 10 mg/kg (Mus musculus [9]; dose 10 mg/kg): 27%
24 | Cc1ccc(NC(=O)c2cc(F)cc(N3CCOCC3)c2)cc1NC(=O)c1ccc(OCc2ccncc2)cc1 | 5.47 | 8.00 |  | < 0.02 µM·h | inhibition in vivo at 30 mg/kg (Mus musculus [7]; dose 30 mg/kg): 40%; inhibition in vivo at 10 mg/kg (Mus musculus [9]; dose 10 mg/kg): 24%
25 | CCOc1ccc(C(=O)Nc2cc(NC(=O)c3cccc(N(C)C)c3)ccc2C)cc1 |  | 7.22 | 5.15 |  | 
26 | COc1cc(C(=O)Nc2cc(NC(=O)c3cccc(N(C)C)c3)ccc2C)cc(OC)c1OC |  | 6.64 | 5.41 |  | 
27 | COc1ccc(C(=O)N(C)c2cc(NC(=O)c3cccc(N(C)C)c3)ccc2C)cc1OC |  | < 4.70 |  |  | 
28 | Cc1ccc(NC(=O)c2cc(N3CCOCC3)cc(C(F)(F)F)c2)cc1NC(=O)c1ccc(OCc2ccccn2)cc1 | 4.99 | 7.70 |  | 0.04 µM·h | inhibition in vivo at 30 mg/kg (Mus musculus [7]; dose 30 mg/kg): 55%; inhibition in vivo at 10 mg/kg (Mus musculus [9]; dose 10 mg/kg): 4%
29 | COCCOc1ccc(C(=O)Nc2cc(NC(=O)c3cccc(N(C)C)c3)ccc2C)cc1 |  | 6.57 | 5.47 |  | 
